In ChEMBL document CHEMBL5143628, “Enteroviral replication inhibition by N-Alkyl triazolopyrimidinone derivatives through a non-capsid binding mode” (Bioorg Med Chem Lett, 2022):
Activity calls are given as the source filed them. The rule behind the calls is not given here.

Columns and labels:
rhinovirus B14 [1] = assay: Antiviral activity against Human rhinovirus B14 infected in human H1-HeLa cells assessed as reduction in virus induced cytopathic effect incubated for 3 days by MTT assay; type: functional, organism-based
Poliovirus 3 = assay: Antiviral activity against Human poliovirus 3 infected in human H1-HeLa cells assessed as reduction in virus induced cytopathic effect incubated for 2 days by MTT assay; type: functional, organism-based; conditions: Enterovirus C, 48 h
Coxsackievirus B1 = assay: Antiviral activity against Human coxsackievirus B1 infected in human H1-HeLa cells assessed as reduction in virus induced cytopathic effect incubated for 2 days by MTT assay; type: functional, organism-based; conditions: Enterovirus B, 48 h
[2] = (§1) Cytotoxicity against human H1-HeLa cells assessed as reduction in cell viability by MTT assay; type: toxicity, cell-based; conditions: H1-HeLa cells
[3] = Antiviral activity against Human rhinovirus A71 infected in human H1-HeLa cells assessed as reduction in virus induced cytopathic effect incubated for 3 days by MTT assay; type: functional, cell-based
rhinovirus A21 = assay: Antiviral activity against Human rhinovirus A21 infected in human H1-HeLa cells assessed as reduction in virus induced cytopathic effect incubated for 3 days by MTT assay; type: functional, organism-based
[4] = Selectivity index, ratio of CC50 for cytotoxicity against human H1-HeLa cells to EC50 for antiviral activity against Human rhinovirus B14 infected in human H1-HeLa cells; type: toxicity, cell-based; conditions: for selectivity ratio: H1-HeLa cells, read-out: Ratio CC50/EC50
[5] = Selectivity index, ratio of CC50 for cytotoxicity against human H1-HeLa cells to EC50 for antiviral activity against Human rhinovirus A71 infected in human H1-HeLa cells; type: toxicity, cell-based; conditions: for selectivity ratio: H1-HeLa cells, read-out: Ratio CC50/EC50
CYP2C19 = CYP2C19 (Homo sapiens, UniProt P33261); assay: Inhibition of human CYP2C19 at 10 uM incubated for 20 mins in presence of NADPH regenerating system by luminescence assay relative to control; type: ADME
[6] = Selectivity index, ratio of CC50 for cytotoxicity against human H1-HeLa cells to EC50 for antiviral activity against Human rhinovirus A21 infected in human H1-HeLa cells; type: toxicity, cell-based; conditions: for selectivity ratio: H1-HeLa cells, read-out: Ratio CC50/EC50
H1-HeLa = assay: as §1; type: toxicity, cell-based; conditions: h1-hela
Rhinovirus A [7] = assay: Antiviral activity against Rhinovirus A33 infected in human H1-HeLa cells assessed as reduction in virus induced cytopathic effect incubated for 3 days by MTT assay; type: functional, cell-based; conditions: Rhinovirus A, 33, H1-HeLa, 72 h
rhinovirus A16 = assay: Antiviral activity against Human rhinovirus 16 infected in human H1-HeLa cells assessed as reduction in virus induced cytopathic effect incubated for 3 days by MTT assay; type: functional, organism-based; conditions: Rhinovirus A, 72 h
[8] = Tmax in Sprague-Dawley rat at 10 mg/kg, po by LC/MS/MS analysis; type: ADME, organism-based; conditions: in vivo
Rhinovirus A [9] = assay: Antiviral activity against Rhinovirus A98 infected in human H1-HeLa cells assessed as reduction in virus induced cytopathic effect incubated for 3 days by MTT assay; type: functional, cell-based; conditions: Rhinovirus A, 98, H1-HeLa, 72 h
CYP1A2 = biological target: T1, CYP1A2 (Homo sapiens, UniProt P05177); assay: Inhibition of human CYP1A2 at 10 uM incubated for 20 mins in presence of NADPH regenerating system by luminescence assay relative to control; type: ADME
T1 sequence (P05177 whole entry): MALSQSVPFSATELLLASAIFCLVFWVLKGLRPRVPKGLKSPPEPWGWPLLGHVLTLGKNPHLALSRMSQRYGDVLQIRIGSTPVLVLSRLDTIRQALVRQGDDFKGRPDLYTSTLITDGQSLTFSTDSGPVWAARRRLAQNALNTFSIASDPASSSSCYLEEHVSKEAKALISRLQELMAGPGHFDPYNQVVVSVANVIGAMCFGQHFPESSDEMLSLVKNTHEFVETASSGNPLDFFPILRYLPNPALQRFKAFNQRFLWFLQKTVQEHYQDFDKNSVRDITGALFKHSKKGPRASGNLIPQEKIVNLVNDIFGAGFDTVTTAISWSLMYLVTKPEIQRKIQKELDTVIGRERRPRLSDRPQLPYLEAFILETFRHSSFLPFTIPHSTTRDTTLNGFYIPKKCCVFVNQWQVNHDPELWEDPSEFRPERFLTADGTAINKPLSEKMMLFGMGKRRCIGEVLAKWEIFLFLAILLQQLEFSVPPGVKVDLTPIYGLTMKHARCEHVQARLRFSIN

[10] = Antiviral activity against Human rhinovirus 42 infected in human H1-HeLa cells assessed as reduction in virus induced cytopathic effect incubated for 3 days by MTT assay; type: functional, cell-based; conditions: Rhinovirus B, 72 h
rhinovirus B86 = assay: Antiviral activity against Human rhinovirus 86 infected in human H1-HeLa cells assessed as reduction in virus induced cytopathic effect incubated for 3 days by MTT assay; type: functional, organism-based; conditions: Rhinovirus B, 72 h
[11] = AUClast in Sprague-Dawley rat at 10 mg/kg, po by LC/MS/MS analysis; type: ADME, organism-based; set-up: time 0 - last, dose 10 mg/kg, route po; conditions: in vivo
[12] = AUCinfinity in Sprague-Dawley rat at 10 mg/kg, po by LC/MS/MS analysis; type: ADME, organism-based; set-up: time infinity, dose 10 mg/kg, route po; conditions: in vivo
[13] = Cmax in Sprague-Dawley rat at 10 mg/kg, po by LC/MS/MS analysis; type: ADME, organism-based; set-up: dose 10 mg/kg, route po; conditions: in vivo
[14] = Metabolic stability in pooled human liver microsomes at 1 uM incubated for 30 mins in presence of NADPH regenerating system by LC/MS/MS analysis; type: ADME, Microsome; conditions: 0.5 h
[15] = Inhibition of Enterovirus A71 replicon RNA transfected in human H1-HeLa cells assessed as reduction in replication measured after 8 hrs by One-Glo luciferase assay; type: cell-based; conditions: Enterovirus A
CYP2D6 = CYP2D6 (Homo sapiens, UniProt P10635); assay: Inhibition of human CYP2D6 at 10 uM incubated for 20 mins in presence of NADPH regenerating system by luminescence assay relative to control; type: ADME
rhinovirus A2 = assay: Antiviral activity against Human rhinovirus 2 infected in human H1-HeLa cells assessed as reduction in virus induced cytopathic effect incubated for 3 days by MTT assay; type: functional, organism-based; conditions: Rhinovirus A, 72 h
[16] = Half life in Sprague-Dawley rat at 10 mg/kg, po by LC/MS/MS analysis; type: ADME, organism-based; conditions: in vivo
CYP2C9 = CYP2C9 (Homo sapiens, UniProt P11712); assay: Inhibition of human CYP2C9 at 10 uM incubated for 20 mins in presence of NADPH regenerating system by luminescence assay relative to control; type: ADME
[17] = Cytotoxicity against human H1-HeLa cells transfected with Enterovirus A71 replicon RNAs assessed as reduction in cell viability by CellTiter-Glo luminescent cell viability assay; type: toxicity, cell-based
[18] = Metabolic stability in pooled rat liver microsomes at 1 uM incubated for 30 mins in presence of NADPH regenerating system by LC/MS/MS analysis; type: ADME, Microsome; conditions: 0.5 h
Rhinovirus B [19] = assay: Antiviral activity against Rhinovirus B27 infected in human H1-HeLa cells assessed as reduction in virus induced cytopathic effect incubated for 3 days by MTT assay; type: functional, organism-based; conditions: Rhinovirus B, 27, H1-HeLa, 72 h
Rhinovirus B [20] = assay: Antiviral activity against Rhinovirus B91 infected in human H1-HeLa cells assessed as reduction in virus induced cytopathic effect incubated for 3 days by MTT assay; type: functional, organism-based; conditions: Rhinovirus B, 91, H1-HeLa, 72 h
rhinovirus A1B = assay: Antiviral activity against Rhinovirus A1B infected in human H1-HeLa cells assessed as reduction in virus induced cytopathic effect incubated for 3 days by MTT assay; type: functional, organism-based; conditions: Rhinovirus A, 72 h
CYP3A4 = CYP3A4 (Homo sapiens, UniProt P08684); assay: Inhibition of human CYP3A4 at 10 uM incubated for 20 mins in presence of NADPH regenerating system by luminescence assay relative to control; type: ADME
rhinovirus B14 [21] = assay: Antiviral activity against Human rhinovirus B14 infected in human H1-HeLa cells assessed as reduction in viral replication by measuring viral titre measured 3 days post infection by crystal violet staining based plaque reduction assay; type: functional, organism-based; conditions: dose 1.1-30 µM, time 3.0 day, DDE = dose-dependent effect
rhinovirus B14 [22] = assay: Antiviral activity against Human rhinovirus B14 infected in human H1-HeLa cells assessed as reduction in viral titre at early stage at 10 uM pretreated for 1 hr followed by viral infection and measured after 9 hrs by time-of-addition assay; type: functional, organism-based

Chain of CYP2C19 (P33261 whole entry): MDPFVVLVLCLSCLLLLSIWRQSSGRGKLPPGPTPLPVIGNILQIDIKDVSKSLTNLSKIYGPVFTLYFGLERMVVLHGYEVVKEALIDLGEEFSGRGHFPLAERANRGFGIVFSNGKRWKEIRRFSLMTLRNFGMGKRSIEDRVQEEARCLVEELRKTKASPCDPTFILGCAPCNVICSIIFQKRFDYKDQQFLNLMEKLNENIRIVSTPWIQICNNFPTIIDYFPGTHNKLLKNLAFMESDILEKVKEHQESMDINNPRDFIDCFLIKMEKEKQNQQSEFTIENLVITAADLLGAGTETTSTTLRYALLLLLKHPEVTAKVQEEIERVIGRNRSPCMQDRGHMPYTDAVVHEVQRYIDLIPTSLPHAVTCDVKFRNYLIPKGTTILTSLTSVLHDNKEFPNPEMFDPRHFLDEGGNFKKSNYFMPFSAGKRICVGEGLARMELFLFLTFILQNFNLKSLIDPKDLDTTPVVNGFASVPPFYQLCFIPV
Chain of CYP3A4 (P08684 whole entry): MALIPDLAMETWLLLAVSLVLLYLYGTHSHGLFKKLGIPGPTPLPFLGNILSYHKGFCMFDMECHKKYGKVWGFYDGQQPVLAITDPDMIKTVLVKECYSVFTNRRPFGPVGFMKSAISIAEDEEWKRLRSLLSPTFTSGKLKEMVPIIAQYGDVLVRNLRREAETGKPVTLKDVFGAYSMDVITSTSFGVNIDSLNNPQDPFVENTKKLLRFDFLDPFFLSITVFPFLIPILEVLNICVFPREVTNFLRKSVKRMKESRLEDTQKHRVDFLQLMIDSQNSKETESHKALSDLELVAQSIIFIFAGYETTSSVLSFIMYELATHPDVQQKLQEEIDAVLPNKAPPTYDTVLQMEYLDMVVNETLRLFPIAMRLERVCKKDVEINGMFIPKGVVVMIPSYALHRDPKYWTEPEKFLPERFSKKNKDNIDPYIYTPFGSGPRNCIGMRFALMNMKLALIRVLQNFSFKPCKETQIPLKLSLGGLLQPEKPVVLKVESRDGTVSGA
Chain of CYP2D6 (P10635 whole entry): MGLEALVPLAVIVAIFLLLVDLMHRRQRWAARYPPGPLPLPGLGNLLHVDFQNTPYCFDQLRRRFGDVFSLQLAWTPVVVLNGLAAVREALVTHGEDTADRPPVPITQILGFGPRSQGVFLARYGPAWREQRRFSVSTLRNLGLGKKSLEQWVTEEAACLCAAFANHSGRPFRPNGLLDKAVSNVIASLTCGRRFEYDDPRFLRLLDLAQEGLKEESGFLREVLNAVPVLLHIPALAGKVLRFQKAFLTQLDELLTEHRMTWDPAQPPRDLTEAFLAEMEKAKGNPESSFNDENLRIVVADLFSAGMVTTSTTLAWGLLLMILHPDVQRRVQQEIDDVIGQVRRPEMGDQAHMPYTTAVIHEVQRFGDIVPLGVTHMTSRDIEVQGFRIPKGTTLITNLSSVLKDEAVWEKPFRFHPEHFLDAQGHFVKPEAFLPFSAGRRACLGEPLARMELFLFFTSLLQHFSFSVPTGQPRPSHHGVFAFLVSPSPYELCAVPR
Chain of CYP2C9 (P11712 whole entry): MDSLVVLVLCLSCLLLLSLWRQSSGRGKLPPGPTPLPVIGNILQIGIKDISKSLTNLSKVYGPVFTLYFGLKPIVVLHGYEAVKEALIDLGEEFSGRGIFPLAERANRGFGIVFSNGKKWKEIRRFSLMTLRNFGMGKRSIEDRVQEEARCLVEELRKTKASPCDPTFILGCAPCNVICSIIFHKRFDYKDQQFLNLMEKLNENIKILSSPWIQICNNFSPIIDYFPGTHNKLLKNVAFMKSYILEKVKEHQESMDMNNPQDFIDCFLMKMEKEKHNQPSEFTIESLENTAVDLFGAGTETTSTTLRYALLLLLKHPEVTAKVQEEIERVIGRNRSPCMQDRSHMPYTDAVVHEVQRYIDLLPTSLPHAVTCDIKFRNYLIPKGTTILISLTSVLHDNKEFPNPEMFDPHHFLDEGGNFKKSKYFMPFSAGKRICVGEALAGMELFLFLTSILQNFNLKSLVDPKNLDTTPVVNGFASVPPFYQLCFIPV

In the case of CCCCn1c(=O)c2c3c(sc2n2cnnc12)CC(C(C)(C)C)CC3 (stereo not given), the EC50 (rhinovirus B14 [1]; Rhinovirus B, H1-HeLa, 72 h) is reported as 2200 nM, the EC50 (Poliovirus 3) is reported as 2550 nM and the EC50 (Coxsackievirus B1) is reported as > 22900 nM. For the same compound, the CC50 [2] was > 100000 nM, the EC50 ([3]; Rhinovirus A, H1-HeLa, 72 h) was 2000 nM and the EC50 (rhinovirus A21; Rhinovirus A, H1-HeLa, 72 h) was > 100000 nM. For the same compound, the selectivity ratio [4] was > 45.4 and the selectivity ratio [5] was > 50.
For CN(C)CCC=C1c2ccccc2CCc2ccccc21 [AMITRIPTYLINE], the inhibition at 20 min, 10 µM (CYP2C19) was 90.2%.
For CC(C)Cn1c(=O)c2c3c(sc2n2cnnc12)CC(C(C)(C)C)CC3 (stereo not given), the EC50 (rhinovirus B14 [1]; Rhinovirus B, H1-HeLa, 72 h) was 4200 nM, the CC50 [2] was > 100000 nM and the EC50 ([3]; Rhinovirus A, H1-HeLa, 72 h) was 2200 nM. The EC50 (rhinovirus A21; Rhinovirus A, H1-HeLa, 72 h) was 5100 nM, the selectivity ratio [4] was > 23.8 and the selectivity ratio [6] was > 19.6. The selectivity ratio [5] was > 45.4.
For CCCn1c(=O)c2c3c(sc2n2cnnc12)CC(C(C)(C)C)CC3 (stereo in doubt; 2c-1), the EC50 (rhinovirus B14 [1]; h1-hela) was 3700 nM, the CC50 (H1-HeLa) was > 100000 nM and the EC50 ([3]; h1-hela) was 1700 nM. The EC50 (rhinovirus A21; h1-hela) was 3500 nM, the “Ratio CC50/EC50” value [4] was > 27 and the “Ratio CC50/EC50” value [6] was > 28.5. The “Ratio CC50/EC50” value [5] was > 58.8.
For CCCn1c(=O)c2c3c(sc2n2cnnc12)CC(C(C)(C)C)CC3 (stereo in doubt; 2c-2), the EC50 (rhinovirus B14 [1]; h1-hela) was 7800 nM, the EC50 ([3]; h1-hela) was 1900 nM and the EC50 (rhinovirus A21; h1-hela) was 7700 nM. For the same compound, the “Ratio CC50/EC50” value [4] was > 12.8, the “Ratio CC50/EC50” value [6] was > 12.9 and the “Ratio CC50/EC50” value [5] was > 52.6.
For CCCn1c(=O)c2c3c(sc2n2cnnc12)CC(C(C)(C)C)CC3 (stereo in doubt) [listing 1 of 2 here], the EC50 (Rhinovirus A [7]) was 1500 nM, the EC50 (rhinovirus B14 [1]; h1-hela) was 1800 nM and the inhibition at 20 min, 10 µM (CYP2C19) was 7.19%. It also gave an EC50 (Poliovirus 3) of 1670 nM, an EC50 (Coxsackievirus B1) of 19800 nM and a CC50 [2] of 77100 nM. The EC50 (rhinovirus A16) was 1900 nM, the Tmax [8] was 3.5 h and the EC50 (Rhinovirus A [9]) was 1900 nM. For the same compound, the inhibition at 20 min, 10 µM (CYP1A2) was 7.46%, the EC50 [10] was 1600 nM and the EC50 (rhinovirus B86) was 1500 nM. The AUC(0-t) [11] was 180 ng·h/mL, the EC50 ([3]; Rhinovirus A, H1-HeLa, 72 h) was 1600 nM and the AUC(0-inf) [12] was 200 ng·h/mL. For the same compound, the EC50 (rhinovirus A21; h1-hela) was 2000 nM, the “Ratio CC50/EC50” value [4] was 37.2 and the Cmax [13] was 20 ng/mL. For the same compound, the Stability [14] was “Stable”, the IC50 [15] was 1700 nM and the inhibition at 20 min, 10 µM (CYP2D6) was 1.26%. For the same compound, the EC50 (rhinovirus A2) was 1900 nM, the half-life [16] was 8.89 h and the inhibition at 20 min, 10 µM (CYP2C9) was 11.9%. For the same compound, the CC50 [17] was > 30000 nM, the Stability [18] was “Stable” and the EC50 (Rhinovirus B [19]) was 1600 nM. For the same compound, the EC50 (Rhinovirus B [20]) was 1700 nM, the EC50 (rhinovirus A1B) was 1900 nM and the “Ratio CC50/EC50” value [6] was 42.2. It also gave an inhibition at 20 min, 10 µM (CYP3A4) of 3.24% and a selectivity ratio [5] of 33.2.
CC(C)(C)C1CCc2c(sc3c2c(=O)n(C2CC2)c2nncn32)C1 (stereo not given) showed an EC50 (rhinovirus B14 [1]; Rhinovirus B, H1-HeLa, 72 h) of 15000 nM, a CC50 [2] of 35500 nM and an EC50 ([3]; Rhinovirus A, H1-HeLa, 72 h) of 4300 nM. For the same compound, the EC50 (rhinovirus A21; Rhinovirus A, H1-HeLa, 72 h) was 7700 nM, the selectivity ratio [4] was 2.3 and the selectivity ratio [6] was 4.6. For the same compound, the selectivity ratio [5] was 8.2.
For CCCn1c(=O)c2c3c(sc2n2cnnc12)CC(C(C)(C)C)CC3 (stereo in doubt) [listing 2 of 2 here], the Activity (rhinovirus B14 [21]) was “Dde” and the Activity (rhinovirus B14 [22]) was “Active”.
